Like-named read-outs stand apart in the source and are kept apart here.
Tests used:
HLA-DP402 (DPB1*0402) = HLA-DP402 (DPB1*0402) (Homo sapiens, UniProt P04440+P20036, A65V/A84D/A85E/L207M); assay: biochemical; format: binding; conditions: DP*0402; read-out: binds with good affinity to DP402
DRB5 = assay: DRB5
HLA-DP401 (DPB1*0401) = HLA-DP401 (DPB1*0401) (Homo sapiens, UniProt P04440+P20036); assay: biochemical; format: binding; conditions: DP*0401; read-out: binds with good affinity to DP401
DR3 = assay: DR3
From the text: (§1) Table printed on a drawing sheet, Figure 2
Where the first naming reader finds the target: head: DR3

DRB3 = assay: DRB3
DP402 = assay: DP402
DR7 = assay: DR7
DP401 = assay: DP401
HLA-DRB4 (DRB4*0101) = molecular target: T1, HLA-DRB4 (DRB4*0101) (Homo sapiens, UniProt P01903+P13762, G164S); assay: biochemical; format: binding; conditions: read-out: binds with good affinity to DRB4
T1 construct: endogenous in cells; host or cells: homozygous EBV-transformed human B lymphocyte lines; immunopurified with antibody L243

DRB4 = assay: DRB4
From the text: as §1
Where the first naming reader finds the target: head: DRB4

DR15 = assay: DR15
HLA-DR15 (DRB1*1501) = molecular target: T2, HLA-DR15 (DRB1*1501) (Homo sapiens, UniProt P01903+P01911); assay: biochemical; format: binding; conditions: DRB1*1501; read-out: binds with good affinity to DR15
T2 construct: endogenous in cells; host or cells: homozygous EBV-transformed human B lymphocyte lines; immunopurified with antibody L243

HLA-DR4 (DRB1*0401) = molecular target: T3, HLA-DR4 (DRB1*0401) (Homo sapiens, UniProt P01903+P01911, A100K/A169T/F76Y/I96L/K127E/L162R/M171V/N62H/P40V/Q125Y/R42H/S133A/S149N/S66Y/V115G/V209L/W38E); assay: biochemical; format: binding; conditions: read-out: binds with good affinity to DR4
T3 construct: endogenous in cells; host or cells: homozygous EBV-transformed human B lymphocyte lines; immunopurified with antibody L243

HLA-DR11 (DRB1*1101) = HLA-DR11 (DRB1*1101) (Homo sapiens, UniProt P01903+P01911, A100R/A169T/A87E/I96F/K41T/L162R/M171V/P40S/Q125H/Q178H/Q39Y/Q99D/R42S/S66Y/T262R/V115G/W38E); assay: biochemical; format: binding; conditions: read-out: binds with good affinity to DR11
Sequence of HLA-DR11 (DRB1*1101) (P01903 26-254 limits assumed, other chains not shown): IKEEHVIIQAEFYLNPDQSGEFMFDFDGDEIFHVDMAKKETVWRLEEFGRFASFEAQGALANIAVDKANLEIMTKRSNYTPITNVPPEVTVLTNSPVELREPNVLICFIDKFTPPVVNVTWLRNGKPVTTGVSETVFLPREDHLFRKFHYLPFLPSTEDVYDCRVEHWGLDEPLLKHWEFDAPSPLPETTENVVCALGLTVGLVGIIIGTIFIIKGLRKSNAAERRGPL

HLA-DR7 (DRB1*0701) = HLA-DR7 (DRB1*0701) (Homo sapiens, UniProt P01903+P01911, A100R/A102G/A103Q/D57E/D86V/E43K/F76Y/K127E/L162R/M171V/P40G/Q125H/Q99D/R33Q/R42Y/R54Q/S133A/S66F/T210M/V115G/Y107V/Y59L/Y89S); assay: biochemical; format: binding; conditions: read-out: binds with good affinity to DR7
HLA-DRB5 (DRB5*0101) = molecular target: T4, HLA-DRB5 (DRB5*0101) (Homo sapiens, UniProt P01903+Q30154); assay: biochemical; format: binding; conditions: read-out: binds with good affinity to DRB5
T4 construct: endogenous in cells; host or cells: homozygous EBV-transformed human B lymphocyte lines; immunopurified with antibody L243

[1] = system: T lymphocytes derived from PBMCs from patients chronically infected with HCV; format: cell-based, human; conditions: supernatant 48 h, —: not detected
DR11 = assay: DR11
From the text: as §1
Where the first naming reader finds the target: head: DR11

HLA-DR3 (DRB1*0301) = molecular target: T5, HLA-DR3 (DRB1*0301) (Homo sapiens, UniProt P01903+P01911, A100K/A102G/A103R/A169T/F55Y/I96L/K41T/L162R/M171V/P40S/Q125H/Q178H/Q39Y/R42S/S66N/T106N/T262R/W38E/Y61H); assay: biochemical; format: binding; conditions: read-out: binds with good affinity to DR3
T5 construct: endogenous in cells; host or cells: homozygous EBV-transformed human B lymphocyte lines; immunopurified with antibody L243

HLA-DR13 (DRB1*1301) = HLA-DR13 (DRB1*1301) (Homo sapiens, UniProt P01903+P01911, A100E/A169T/K41T/L162R/M171V/P40S/Q125H/Q178H/Q39Y/Q99D/R42S/S66N/T262R/W38E/Y61H); assay: biochemical; format: binding; conditions: read-out: binds with good affinity to DR13
HLA-DR1 (DRB1*0101) = molecular target: T6, HLA-DR1 (DRB1*0101) (Homo sapiens, UniProt P01903+P01911, A100R/D57E/F55L/F60I/F76Y/I96L/L162R/M171V/P40L/Q125E/R42F/V115G/Y59C); assay: biochemical; format: binding; conditions: for IC50: DRB1*0101
T6 construct: endogenous in cells; host or cells: homozygous EBV-transformed human B lymphocyte lines; immunopurified with antibody L243

Structure (SMILES): CC(C)C[C@H](NC(=O)[C@H](CCCNC(=N)N)NC(=O)[C@@H]1CCCN1C(=O)CNC(=O)[C@H](CCCNC(=N)N)NC(=O)[C@H](CCCNC(=N)N)NC(=O)[C@@H]1CCCN1C(=O)[C@H](CC(C)C)NC(=O)[C@H](CC(C)C)NC(=O)[C@H](Cc1ccc(O)cc1)NC(=O)[C@@H](NC(=O)CNC(=O)CNC(=O)[C@@H](N)C(C)C)C(C)C)C(=O)NCC(=O)N[C@H](C(=O)N[C@@H](CCCNC(=N)N)C(=O)N[C@@H](C)C(=O)N[C@H](C(=O)N[C@@H](CCCNC(=N)N)C(=O)N[C@@H](CCCCN)C(=O)N[C@H](C(=O)N[C@@H](CO)C(=O)N[C@@H](CCC(=O)O)C(=O)N[C@@H](CCCNC(=N)N)C(=O)N[C@@H](CO)C(=O)N[C@@H](CCC(N)=O)C(=O)O)[C@@H](C)O)[C@@H](C)O)C(C)C [2C 31-57]
- IC50 (HLA-DP402 (DPB1*0402)): < 1000 nM
- IC50 (DRB5): 3 nM
- IC50 (HLA-DP401 (DPB1*0401)): < 1000 nM
- IC50 (DR3): > 100000 nM
- IC50 (DRB3): > 100000 nM
- IC50 (DP402): > 100000 nM
- IC50 (DR7): 500 nM
- IC50 (DP401): > 100000 nM

Structure (SMILES): CC[C@H](C)[C@H](NC(=O)[C@H](CCC(=O)O)NC(=O)[C@H](CCCNC(=N)N)NC(=O)CN)C(=O)N[C@@H](CC(C)C)C(=O)N[C@@H](CC(C)C)C(=O)NCC(=O)N1CCC[C@H]1C(=O)N[C@@H](C)C(=O)N[C@@H](CC(=O)O)C(=O)NCC(=O)N[C@@H](CCSC)C(=O)N[C@H](C(=O)N[C@@H](CO)C(=O)N[C@@H](CCCCN)C(=O)NCC(=O)N[C@@H](Cc1c[nH]c2ccccc12)C(=O)N[C@@H](CCCNC(=N)N)C(=O)N[C@@H](CC(C)C)C(=O)N[C@@H](CC(C)C)C(=O)N[C@@H](C)C(=O)N1CCC[C@H]1C(=O)N[C@H](C(=O)N[C@H](C(=O)N[C@@H](C)C(=O)N[C@@H](Cc1ccc(O)cc1)C(=O)N[C@@H](C)C(=O)N[C@@H](CCC(N)=O)C(=O)N[C@@H](CCC(N)=O)C(=O)N[C@H](C(=O)N[C@@H](CCCNC(=N)N)C(=O)O)[C@@H](C)O)[C@@H](C)O)[C@@H](C)CC)C(C)C [8N 1007-1037]
- IC50 (HLA-DRB4 (DRB4*0101)): < 1000 nM
- IC50 (DRB4): 60 nM
- IC50 (DR15): 30 nM
- IC50 (HLA-DR15 (DRB1*1501)): < 1000 nM
- IC50 (HLA-DR4 (DRB1*0401)): < 1000 nM
- IC50 (HLA-DR11 (DRB1*1101)): < 1000 nM
- IC50 (HLA-DR7 (DRB1*0701)): < 1000 nM
- IC50 (HLA-DP402 (DPB1*0402)): < 1000 nM
- IC50 (DRB5): 2 nM
- IC50 (HLA-DRB5 (DRB5*0101)): < 1000 nM
- IL10 ([1]; patient 067): 43 pg/mL
- IL10 ([1]; patient 078): 41 pg/mL
- IC50 (DR11): 1 nM
- IC50 (HLA-DR3 (DRB1*0301)): < 1000 nM
- IC50 (DR3): 200 nM
- IC50 (HLA-DR13 (DRB1*1301)): < 1000 nM
- IC50 (DRB3): 15000 nM
- IC50 (DP402): 881 nM
- IC50 (DR7): 88 nM
- IC50 (HLA-DR1 (DRB1*0101); competition with biotinylated tracer HA 306-318, read-out: IC50, binding to HLA-DR1): 2 nM
- IC50 (HLA-DR1 (DRB1*0101); read-out: binds with good affinity to DR1): < 1000 nM
- affinity for HLA-DR1 (in words) (HLA-DR1 (DRB1*0101); legend of FIG. 4): high affinity
- IC50 (DP401): 7200 nM
